{
  "source": "patent US20160331743A1",
  "about": "(UROGEN PHARMA LTD, priority 2014, published 2016)",
  "tested_on": "carcinoma in situ (CIS) bladder cancer",
  "details": "imiquimod 0.4%, once weekly for 6 weeks",
  "note": "“Also recorded” adds a separate entry of the source. Where two headings read alike, the source gives them in different places.",
  "source_text": "Patients who have been diagnosed with CIS bladder cancer are potential candidates for the study. The CIS lesion(s) may be primary, secondary, or recurrent, and may be concomitant to a Ta or T1 lesion, provided the Ta or T1 lesion has been fully resected.\nAfter provision of written informed consent, patients are to be evaluated for study eligibility during the screening period within 28 days (4 weeks) before Day 0 (i.e., the first day of study drug administration). Screening evaluations to be performed include medical history, physical examination, vital signs, Eastern Cooperative Oncology Group (ECOG) performance status, hematology and clinical chemistry, and urinalysis with culture. Screening evaluations also include a cystoscopic examination of the bladder with mapping and biopsy/ies of all suspicious areas between Days −28 and −14, followed by a bladder washing for cytology. Patients who have undergone such examinations as part of the diagnostic process outside of the study are not required to undergo the procedures again, provided the examinations occurred within the specified timeframe and positive slides are available for a central pathology and cytology review.\nIn cases with no visible lesions, at least one biopsy will be taken at the prior positive site and at least 1 additional random biopsy will be taken. Response to treatment will be determined based on urine cytology and tissue sample histology findings.\nPatients meeting all of the following criteria were considered eligible for study entry: • 1. Males or female patient is aged ≧18 years. • 2. Patient has pathologically-proven, recurrent, primary, secondary, or concomitant carcinoma in situ disease, defined by having either CIS alone or Ta or T1 with CIS, provided the Ta or T1 lesion(s) has/have been fully resected. In cases with T1 tumor lesions, muscularis propria tissue should be in the resected specimen to confirm that it is tumor-free. • 3. Patient has undergone mapping of the bladder between Days −28 and −14, with at least one biopsy providing pathological confirmation of CIS of the bladder. • 4. Patient has undergone bladder washing for cytology between Days −28 and −1. In patients in whom Ta or T1 lesion(s) were resected, the bladder washing must have occurred after the resection. • 5. Patient has an ECOG performance status 0-2. • 6. Patient has adequate bone marrow, hepatic, and renal function within 4 weeks before Day 0.",
  "data": [
    {"smiles": "CC(C)Cn1cnc2c(N)nc3ccccc3c21", "note": "[imiquimod, 1-Isobutyl-1H-imidazo[4,5-c]quinolin-4-amine]", "values": [
      {"measurement": "Summary (response to treatment)", "setting": "Patient 1 (BCG refractory, CIS), 50 mL intravesical", "result": "Responder"},
      {"measurement": "Histology post treatment", "setting": "Patient 1 (prior BCG, CIS prior to treatment), 200 mg in 50 mL intravesical, assessed 5 to 7 weeks after last dose", "result": "no tumor was detecable"},
      {"measurement": "Tumour detectable in follow-up evaluation", "setting": "Patient 1, preliminary results, 50 mL intravesical", "result": "no tumour was detectable"},
      {"measurement": "Summary (response to treatment)", "setting": "Patient 2 (prior chemo, BCG; CIS), 50 mL intravesical, evaluation still ongoing", "result": "partial responder"},
      {"measurement": "Histology post treatment", "setting": "Patient 2 (prior chemotherapy, BCG, 9x TURBT, CIS prior to treatment), 50 mL intravesical", "result": "still CIS detected and CIS"},
      {"measurement": "Cytology post treatment", "setting": "Patient 3 (no prior treatment), 50 mL intravesical", "result": "no tumor was detected any more"},
      {"measurement": "Summary (response to treatment)", "setting": "Patient 3 (no prior treatment, CIS + papillary cancer), 50 mL intravesical", "result": "Responder"},
      {"measurement": "Histology post treatment", "setting": "Patient 3 (no prior treatment, CIS + papillary high and low grade cancer prior to treatment), 50 mL intravesical", "result": "no tumor was detected any more; also recorded: No tumor"},
      {"measurement": "Histology post treatment", "setting": "Patient 4 (prior TURB, low grade prior to treatment; had no CIS bladder cancer, excluded from study), 50 mL intravesical", "result": "No tumor"},
      {"measurement": "Histology post treatment", "setting": "Patient 5 (prior BCG/Mitomycin, CIS prior to treatment), 50 mL intravesical", "result": "no tumor was detectable"},
      {"measurement": "Summary (response to treatment)", "setting": "Patient 5 (prior BCG/Mitomycin, CIS), 50 mL intravesical", "result": "Responder"},
      {"measurement": "Number of patients with complete remission of the CIS bladder cancer as assessed by histology", "setting": "of the 5 patients analyzed (patients 1, 3, 4, 5 counted), 50 mL intravesical", "result": "Four"}
    ]}
  ]
}
